Structures are written as SMILES. pEC50: −log10 of the molar value.

Sequence of S1P1 (P21453 whole entry, the tested form may be a part): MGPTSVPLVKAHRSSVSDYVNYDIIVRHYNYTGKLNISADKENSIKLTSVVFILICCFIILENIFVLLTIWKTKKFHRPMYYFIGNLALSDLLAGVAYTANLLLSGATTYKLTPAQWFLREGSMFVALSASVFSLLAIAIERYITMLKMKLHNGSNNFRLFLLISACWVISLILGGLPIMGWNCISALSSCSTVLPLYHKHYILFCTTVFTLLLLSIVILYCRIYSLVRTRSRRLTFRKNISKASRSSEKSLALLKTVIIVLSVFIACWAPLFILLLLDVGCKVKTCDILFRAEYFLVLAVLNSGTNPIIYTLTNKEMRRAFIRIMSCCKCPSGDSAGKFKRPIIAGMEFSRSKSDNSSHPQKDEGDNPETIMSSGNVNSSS
Sequence of S1P1 (P32121 whole entry partner, the tested form may be a part): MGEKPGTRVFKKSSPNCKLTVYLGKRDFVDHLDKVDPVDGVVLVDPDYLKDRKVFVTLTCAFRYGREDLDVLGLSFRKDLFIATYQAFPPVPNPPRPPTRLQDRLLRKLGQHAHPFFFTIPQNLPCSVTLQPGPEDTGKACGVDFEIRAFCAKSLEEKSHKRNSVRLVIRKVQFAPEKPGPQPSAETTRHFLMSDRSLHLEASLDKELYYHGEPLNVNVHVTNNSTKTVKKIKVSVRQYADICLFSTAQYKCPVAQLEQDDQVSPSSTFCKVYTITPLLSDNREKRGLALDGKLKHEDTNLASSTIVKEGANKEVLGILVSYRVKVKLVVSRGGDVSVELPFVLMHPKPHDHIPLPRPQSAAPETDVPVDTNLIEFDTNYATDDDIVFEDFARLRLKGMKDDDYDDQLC

The first assay concerns the target S1P1 (Homo sapiens, UniProt P21453). Kind of assay: Tango β-arrestin Recruitment Assay in U2OS cells (Assay 2b). In kind it is cell-based. To be noted: Tango β-arrestin Recruitment Assay, footnote 1: Relative EC50 was measured, read-out: Assay 2b relative EC50. Further details: linker with TEV protease (N1a) cleavage site (C). The text has this: For the Tango™ β-arrestin recruitment assay, the cytoplasmic C-terminus of S1P1 is tethered to the tTA transcriptional activator with a linker that contains a cleavage site for the N1a protease from tobacco etch virus (TEV protease). The C-terminus of the human β-arrestin2 protein is fused to TEV protease. Binding of an agonist recruits the β-arrestin-TEV fusion protein to the receptor resulting in cleavage of the linker and release of tTA to enter the nucleus and subsequently activate a tTA-dependent luciferase reporter gene.
Alternatively, U2OS cells expressing the reporter gene and S1P1 (Invitrogen) were added to the wells of a 384-well white opaque bottom assay plate (PerkinElmer) at […] per well. The cells were serum starved for 48 h in Freestyle medium (Invitrogen). Test compounds were tested at maximum concentrations of 1 μM for the agonist assay. Compounds were diluted in DMSO (10 concentration points, 3-fold each) and added to the assay plate at a 1% final DMSO concentration. The efficacy control was 1 μM S1P (Avanti). For each compound, there were duplicate assay plates and each assay plate had duplicate wells per concentration point. The plate was incubated overnight at 37° C. The GeneBLAzer β-lactamase assay reagent (Invitrogen) was added and the plates were incubated for an additional 2 h at room temperature. Fluorescence was measured using an EnVision plate reader (PerkinElmer, Waltham, Mass.) at an excitation wavelength of 409 nm and emission wavelengths of 460 nm and 530 nm. The emission intensity at each wavelength was background subtracted against wells containing medium only and the F460 nm/F530 nm ratio determined for each concentration of the test compounds. Percent activity was calculated as [(test compound ratio−DMSO ratio)/(positive control ratio−DMSO ratio)*100], where the positive control and DMSO ratios are from cells incubated with the efficacy control 1 μM S1P and 1% DMSO, respectively. The percent activities were plotted against compound concentration to determine EC50 using XLFit (IDBS).
Assay 1 is the CNG cAMP Assay as described in Biological Example 1. Assay 2a and 2b are the Tango™ β-arrestin Recruitment Assay in HEK293 and U2OS cells, respectively, as described in Biological Example 2. Assay 3a is the hS1P1R GTPγS Binding Assay as described in Biological Example 3. Assay 3b is the GTP-Eu Binding Assay as described in Biological Example 3. EC50's were measured unless otherwise noted. […] In the table, “nt” means the Compound was not tested and “no” means the compound was tested but had no measurable activity under the assay conditions employed.
Background: Activated receptors often draw arrestin, which recruitment assays turn into a signal.
In general, pEC50 refers to −log10 of the EC50, conventionally taken in molar units. For the compound `CC(N)COc1cc(Cl)c(-c2nnc(-c3cn4cc(C(F)(F)F)cc(Cl)c4n3)s2)cc1F` (centres unmarked) [Example 298, 1-[(5-chloro-4-{5-[8-chloro-6-(trifluoromethyl)imidazo[1,2-a]pyridin-2-yl]-1,3,4-thiadiazol-2-yl}-2-fluorophenyl)pxy]propan-2-amine], the pEC50 was 6.30 to 7.00. On the same count and under the same terms, with `COC(=O)C(C)(O)COc1cc(Cl)c(-c2noc(-c3cn4cc(C(F)(F)F)cc(Cl)c4n3)n2)cc1Cl` (centres unmarked) [Example 319, methyl 3-[(2,5-dichloro-4-{5-[8-chloro-6-(trifluoromethyl)imidazo[1,2-a]pyridin-2-yl]-1,2,4-oxadiazol-3-yl}phenyl)oxy]-2-hydroxy-2-methylpropanoate] the figure was 6.30 to 7.00.

Staying with this assay, now noted: Tango β-arrestin Recruitment Assay, read-out: Assay 2b EC50.
Consider `NC(CO)COc1cc(Cl)c(-c2nnc(-c3cn4cc(C(F)(F)F)cc(Cl)c4n3)s2)cc1Cl` (centres unmarked) [Example 220, 2-amino-3-[(2,5-dichloro-4-{5-[8-chloro-6-(trifluoromethyl)imidazo[1,2-a]pyridin-2-yl]-1,3,4-thiadiazol-2-yl}phenyl)oxy]propan-1-ol], for which the pEC50 is not below 7.00. On the same count and under the same terms, in the case of `CC(CCc1cc(Cl)c(-c2noc(-c3cn4cc(C(F)(F)F)cc(Cl)c4n3)n2)cc1Cl)OP(=O)(O)O` (centres unmarked) [Example 221, 3-(2,5-dichloro-4-{5-[8-chloro-6-(trifluoromethyl)imidazo[1,2-a]pyridin-2-yl]-1,2,4-oxadiazol-3-yl}phenyl)-1-methylpropyl dihydrogen phosphate] it was not below 7.00. Turning to `NC(CO)COc1cc(Cl)c(-c2nnc(-c3cn4cc(C(F)(F)F)cc(Cl)c4n3)o2)cc1F` (centres unmarked) [Example 222, 2-amino-3-[(5-chloro-4-{5-[8-chloro-6-(trifluoromethyl)imidazo[1,2-a]pyridin-2-yl]-1,3,4-oxadiazol-2-yl}-2-fluorophenyl)oxy]propan-1-ol], the pEC50 was not below 7.00.

With `OC(COc1cc(Cl)c(-c2noc(-c3cn4cc(C(F)(F)F)cc(Br)c4n3)n2)cc1Cl)C(F)(F)F` (centres unmarked) [Example 294, 3-[(4-{5-[8-bromo-6-(trifluoromethyl)imidazo[1,2-a]pyridin-2-yl]-1,2,4-oxadiazol-3-yl}-2,5-dichlorophenyl)oxy]-1,1,1-trifluoropropan-2-ol], the pEC50 was not below 7.00. In the case of `O=C(O)CCc1c(F)cc(-c2noc(-c3cn4cc(C(F)(F)F)cc(Cl)c4n3)n2)cc1Cl` [Example 296, 3-(2-chloro-4-{5-[8-chloro-6-(trifluoromethyl)imidazo[1,2-a]pyridin-2-yl]-1,2,4-oxadiazol-3-yl}-6-fluorophenyl)propanoic acid], the negative-log EC50 (pEC50) is not below 7.00. The same measure, in the same setting: with `Cc1cc(CCC(=O)O)c(Cl)cc1-c1nc(-c2cn3cc(I)cc(Cl)c3n2)no1` [Example 297, 3-{2-chloro-4-[3-(8-chloro-6-iodoimidazo[1,2-a]pyridin-2-yl)-1,2,4-oxadiazol-5-yl]-5-methylphenyl}propanoic acid] the figure was not below 7.00. Same read-out and setting: in the case of `O=C(O)C1CC1c1cc(Cl)c(-c2nc(-c3cn4cc(C(F)(F)F)cc(Cl)c4n3)no2)cc1Cl` (centres unmarked) [Example 299, 2-(2,5-dichloro-4-{3-[8-chloro-6-(trifluoromethyl)imidazo[1,2-a]pyridin-2-yl]-1,2,4-oxadiazol-5-yl}phenyl)cyclopropanecarboxylic acid] it was 6.30 to 7.00; in that of `CC1(C)OC[C@@H](COc2cc(Cl)c(-c3noc(-c4cn5cc(C(F)(F)F)cc(Cl)c5n4)n3)cc2Cl)O1` [Example 304, 8-chloro-2-{3-[2,5-dichloro-4-({[(4R)-2,2-dimethyl-1,3-dioxolan-4-yl]methyl}oxy)phenyl]-1,2,4-oxadiazol-5-yl}-6-(trifluoromethyl)imidazo[1,2-a]pyridine], not below 7.00; in that of `CC(=O)COc1cc(Cl)c(-c2noc(-c3cn4cc(C(F)(F)F)cc(Br)c4n3)n2)cc1Cl` [Example 305, 1-[(4-{5-[8-bromo-6-(trifluoromethyl)imidazo[1,2-a]pyridin-2-yl]-1,2,4-oxadiazol-3-yl}-2,5-dichlorophenyl)oxy]propan-2-one], not below 7.00. Same read-out and setting: with `O=C(O)C1CC1c1cc(Cl)c(-c2noc(-c3cn4cc(C(F)(F)F)cc(Br)c4n3)n2)cc1Cl` (centres unmarked) [Example 306, 2-(4-{5-[8-bromo-6-(trifluoromethyl)imidazo[1,2-a]pyridin-2-yl]-1,2,4-oxadiazol-3-yl}-2,5-dichlorophenyl)cyclopropanecarboxylic acid] the figure was not below 7.00; with `OCC(CO)Oc1cc(Cl)c(-c2noc(-c3cn4cc(C(F)(F)F)cc(Cl)c4n3)n2)cc1Cl` [Example 307, 2-[(2,5-dichloro-4-{5-[8-chloro-6-(trifluoromethyl)imidazo[1,2-a]pyridin-2-yl]-1,2,4-oxadiazol-3-yl}phenyl)oxy]propane-1,3-diol], not below 7.00; with `OCCNc1cc(Cl)c(-c2noc(-c3cn4cc(C(F)(F)F)cc(Cl)c4n3)n2)cc1F` [Example 308, 2-[(5-chloro-4-{5-[8-chloro-6-(trifluoromethyl)imidazo[1,2-a]pyridin-2-yl]-1,2,4-oxadiazol-3-yl}-2-fluorophenyl)amino]ethanol], not below 7.00. In the case of `N[C@@H](CO)COc1cc(Cl)c(-c2nnc(-c3cn4cc(C(F)(F)F)ccc4n3)s2)cc1F` [Example 309, (2S)-2-amino-3-[(5-chloro-2-fluoro-4-{5-[6-(trifluoromethyl)imidazo[1,2-a]pyridin-2-yl]-1,3,4-thiadiazol-2-yl}phenyl)oxy]propan-1-ol], the pEC50 is not below 7.00. On the same count and under the same terms, in the case of `COc1ccc2nc(-c3nnc(-c4cc(F)c(OC[C@@H](N)CO)cc4Cl)s3)cn2c1` [Example 310, (2S)-2-amino-3-[(5-chloro-2-fluoro-4-{5-[6-(methyloxy)imidazo[1,2-a]pyridin-2-yl]-1,3,4-thiadiazol-2-yl}phenyl)oxy]propan-1-ol] it was not below 7.00; in that of `OCC(F)(F)COc1cc(Cl)c(-c2noc(-c3cn4cc(C(F)(F)F)cc(Cl)c4n3)n2)cc1Cl` [Example 311, 3-[(2,5-dichloro-4-{5-[8-chloro-6-(trifluoromethyl)imidazo[1,2-a]pyridin-2-yl]-1,2,4-oxadiazol-3-yl}phenyl)oxy]-2,2-difluoropropan-1-ol], not below 7.00. For `CC(O)COc1cc(Cl)c(-c2noc(-c3cn4cc(C(F)(F)F)cc(Br)c4n3)n2)cc1Cl` (centres unmarked) [Example 316, 1-[(4-{5-[8-bromo-6-(trifluoromethyl)imidazo[1,2-a]pyridin-2-yl]-1,2,4-oxadiazol-3-yl}-2,5-dichlorophenyl)oxy]propan-2-ol], the pEC50 was not below 7.00.

In the case of `COCC(O)COc1cc(Cl)c(-c2noc(-c3cn4cc(C(F)(F)F)cc(Cl)c4n3)n2)cc1Cl` (centres unmarked) [Example 318, 1-[(2,5-dichloro-4-{5-[8-chloro-6-(trifluoromethyl)imidazo[1,2-a]pyridin-2-yl]-1,2,4-oxadiazol-3-yl}phenyl)oxy]-3-(methyloxy)propan-2-ol], the pEC50 was not below 7.00. Still for that read-out and setting: with `O=C(O)C1CC1c1cc(Cl)c(-c2nnc(-c3cn4cc(C(F)(F)F)cc(Cl)c4n3)s2)cc1Cl` (centres unmarked) [Example 320, 2-(2,5-dichloro-4-{5-[8-chloro-6-(trifluoromethyl)imidazo[1,2-a]pyridin-2-yl]-1,3,4-thiadiazol-2-yl}phenyl)cyclopropanecarboxylic acid] the figure was not below 7.00; with `CC(O)CNc1cc(Cl)c(-c2noc(-c3cn4cc(C(F)(F)F)cc(Cl)c4n3)n2)cc1Cl` (centres unmarked) [Example 323, 1-[(2,5-dichloro-4-{5-[8-chloro-6-(trifluoromethyl)imidazo[1,2-a]pyridin-2-yl]-1,2,4-oxadiazol-3-yl}phenyl)amino]propan-2-ol], not below 7.00. The same measure, in the same setting: with `C[C@@H](COc1cc(Cl)c(-c2noc(-c3cn4cc(C(F)(F)F)cc(Br)c4n3)n2)cc1Cl)OP(=O)(O)O` [Example 325, (1S)-2-[(4-{5-[8-bromo-6-(trifluoromethyl)imidazo[1,2-a]pyridin-2-yl]-1,2,4-oxadiazol-3-yl}-2,5-dichlorophenyl)oxy]-1-methylethyl dihydrogen phosphate] the figure was not below 7.00. Still for that read-out and setting: with `CC(O)(COc1cc(Cl)c(-c2noc(-c3cn4cc(C(F)(F)F)cc(Cl)c4n3)n2)cc1Cl)C(=O)O` (centres unmarked) [Example 327, 3-[(2,5-dichloro-4-{5-[8-chloro-6-(trifluoromethyl)imidazo[1,2-a]pyridin-2-yl]-1,2,4-oxadiazol-3-yl}phenyl)oxy]-2-hydroxy-2-methylpropanoic acid] the figure was not below 7.00.

The values are drawn from patent US20100160369A1, “S1P1 Agonists and Methods of Making And Using” (EXELIXIS, INC., priority 2008, published 2010).
